{
  "source": "patent US20120316199A1",
  "about": "“COMPOSITIONS AND METHODS FOR TREATING, CONTROLLING, REDUCING, OR AMELIORATING INFLAMMATORY PAIN” (priority 2011, published 2012)",
  "key": {"[1]": {"test_system": "pain following cataract surgery", "test": "Clinical study after cataract surgery: Grade 0 pain", "type": "in vivo, human", "description": "(§1) There were 8 treatment groups in this study, consisting of three drug doses, vehicle and three dosing frequencies (see also Table 4-1): • Group A: 1% BOL-303242-X ophthalmic suspension, two times per day (BID) • Group B: 2% BOL-303242-X ophthalmic suspension, one time per day (QD) • Group C: 2% BOL-303242-X ophthalmic suspension, BID • Group D: 2% BOL-303242-X ophthalmic suspension, four times per day (QID) • Group E: 3% BOL-303242-X ophthalmic suspension, QD • Group F: 3% BOL-303242-X ophthalmic suspension, BID • Group G: 3% BOL-303242-X ophthalmic suspension, QID • Group H: Vehicle for BOL-303242-X (divided equally into QID, BID, and QD)\nSubjects self-administered study drug, instilling 1 to 2 drops of study drug into the study eye: QID at approximately 4 hour intervals, BID at approximately 12 hour intervals, or QD once in the morning, for 14 days. The initial dose occurred in the clinic at Visit 3 and the final dose was on the day before Visit 6 (postoperative Day 15±1 day). Subjects were examined and evaluated according to the following schedule:\n(§2) Visit 1 (screening), Visit 2 (cataract surgery), Visit 3 (postoperative Day 1), Visit 4 (postoperative Day 3±1 day), Visit 5 (postoperative Day 8±1 day), Visit 6 (postoperative Day 15±1 day), Visit 7 (postoperative Day 18±1 day). Subject assessments included adverse events (AEs), concomitant medications, ocular symptoms, pinholed Snellen visual acuity (VA), intraocular pressure (IOP), ocular signs (biomicroscopy), fundoscopy, and study drug drop sensation. In addition, subject diaries were collected and reviewed for accuracy and treatment compliance.\nSecondary Efficacy: The secondary efficacy endpoints for this study were the proportions of subjects with Grade 0 pain at Visit 5 (postoperative Day 8) and at each visit, complete resolution of AC cells at each visit, complete resolution of AC cells and flare at each visit, complete resolution of AC flare at each visit, change from baseline to each follow-up visit in AC cells and AC flare combined and separately, ocular symptoms."}, "[2]": {"test_system": "rabbit eyes", "test": "Ophthalmic observations (slit lamp, McDonald Shadduck scores) in New Zealand White rabbits", "type": "in vivo", "design": "key to Ophthalmic Observation (Slit-Lamp): AN = Appeared normal; key to Cornea Score: CORNEA 1 = Some loss of transparency. Only the epithelium and/or the anterior half of the stoma are involved. The underlying structures are clearly visible although some cloudiness may be readily apparent", "protocol": "Prior to placement on study, each animal underwent a pre-treatment ophthalmic examination (slit lamp and indirect ophthalmoscopy). Observations were scored according to the McDonald Shadduck system and recorded using a standardized data collection sheet.\nOn Days 1-31, animals received daily topical doses of the appropriate test article into the right eye. Animals were dosed four times per day, with doses administered 2 hours apart. Doses were administered using a calibrated 50-μL pipette. The eyelids were held close for 10 seconds immediately following dosing. The time of each dose administration was recorded.\nOphthalmic examinations (slit lamp) were performed prior to the first dosing on Days 5, 12, 22, 26, and 33. Ocular findings were scored according to the McDonald Shadduck system and recorded using a standardized data collection sheet."}, "[3]": {"test_system": "COX-2", "test": "COX-2 protein in IL-1β-induced human conjunctival fibroblasts (Western blot)", "type": "cell-based", "settings": "pretreated 2 h, then IL-1β 24 h; Western blot normalized to GAPDH (FIG. 7)", "protocol": "Cells were washed with ice-cold PBS and lysed in cell lysis buffer (62.5 mM Tris-HCl, pH 6.8, 2% sodium dodecyl sulfate (SDS), 10% glycerol). Cells were sonicated, and centrifuged at 12,000 rpm and protein concentration was determined using the Micro BCA protein assay kit. Proteins in aliquots of cell lysate (˜20 μg protein) were separated by SDS-polyacrylamide electrophoresis (SDS-PAGE) on 10% gels and transferred to PVDF membranes. Membranes were blocked with 5% BSA and exposed to mouse anti-COX-2 antibody (Caymen). The blots were washed, and exposed to horseradish peroxidase-conjugated anti-mouse secondary antibody. After washing, blots were incubated in ECL (enhanced chemiluminescence) solutions and chemiluminescent bands were visualized using the Fluor Chem imaging system (AlphaInnotech, San Leandro, Calif.). Blots were then stripped and re-probed for glyceraldehyde 3-phosphate dehydrogenase (GAPDH) (Zymed) antibody as loading controls. The experiment was repeated 3 times. Analysis of Western blot band density for COX-2 and GAPDH in captured digital images was done using the Alpha-Innotech Chemi-Imager software (Alpha Innotech; San Leandro, Calif.). Levels of COX-2 protein were normalized to GAPDH."}, "[4]": {"test_system": "IL-1β-stimulated cytokine expression in primary human corneal epithelial cells", "test": "IL-1β-stimulated cytokine production in primary human corneal epithelial cells (30-cytokine Luminex kit)", "settings": "HCECs", "procedure": "Primary HCECs were seeded in 24-well plates. […] Each treatment was performed in triplicate. Media were collected and used for determination of cytokine content using a 30-cytokine Luminex kit. Cell viability was determined by alamarBlue assay (LP06013).\nMedian fluorescence intensity (MFI) was used to obtain the concentration of each cytokines in pg/ml based on the standard curve of each cytokine assayed by Luminex. The linear range of the standard curve for each cytokine was used for determination of cytokine concentration. Duplicate values for each sample were averaged. Data were expressed as mean±SD. Statistical analysis was performed using one-way ANOVA-Dunnett's test, and P<0.05 was considered statistically significant."}, "[5]": {"test_system": "anterior-segment inflammation after anterior chamber paracentesis", "test": "Rabbit paracentesis model, overall anti-inflammatory activity", "type": "in vivo, Rabbit (New Zealand)"}, "[6]": {"test_system": "intraocular pressure (IOP)", "test": "Clinical study after cataract surgery: intraocular pressure (safety)", "type": "in vivo, human", "description": "as §1, §2\nSafety: The safety endpoints in this study were: incidence of AEs, change in IOP, ocular signs (biomicroscopy), Snellen VA, fundoscopy, study drug drop sensation assessment."}, "[7]": {"settings": "Group B, 10 mg/g, treated right eye, individual animals"}, "[8]": {"settings": "Group C, 5 mg/g, treated right eye, individual animals"}},
  "note": "“Also recorded” adds a separate entry of the source.",
  "data": [
    {"smiles": "Cc1ccc2c(NC[C@](O)(CC(C)(C)c3cc(F)cc4c3OCC4)C(F)(F)F)cccc2n1", "note": "[BOL-303242-X, mapracorat]", "values": [
      {"measurement": "proportion of subjects with Grade 0 pain", "setting": "[1]; 2% QID, Visit 5 (postoperative Day 8), vehicle 50.0%", "result": 78.3, "unit": "%"},
      {"measurement": "proportion of subjects with Grade 0 pain", "setting": "[1]; 3% BID, Visit 7 (postoperative Day 18), vehicle 31.7%", "result": 63.3, "unit": "%"},
      {"measurement": "proportion of subjects with Grade 0 pain", "setting": "[1]; 3% QID, Visit 7 (postoperative Day 18), vehicle 31.7%", "result": 58.3, "unit": "%"},
      {"measurement": "Slit-lamp ophthalmic finding in dosed right eye", "setting": "[2]; 1 mg/g suspension, one eye (Group D, No. 3043)", "result": "subconjunctival hemorrhage"},
      {"measurement": "Slit-lamp ophthalmic finding in dosed right eye", "setting": "[2]; 10 mg/g suspension, one eye (Group B, No. 3083)", "result": "pinpoint corneal scar"},
      {"measurement": "Surface area of cornea involvement Score", "setting": "[2]; Group B, 10 mg/g, treated right eye, animal 3083, Day 5", "result": "1 (SURFACE AREA OF CORNEA INVOLVEMENT 1 = 1-25% area of stromal cloudiness.)"},
      {"measurement": "Cornea Score", "setting": "[2]; Group B, 10 mg/g, treated right eye, animal 3083, Day 5, pinpoint corneal scar", "result": "1^(2)"},
      {"measurement": "Conjunctival congestion Score", "setting": "[2]; [7]", "result": 1},
      {"measurement": "Ophthalmic Observation (Slit-Lamp)", "setting": "[2]; [7]", "result": "AN"},
      {"measurement": "Conjunctival congestion Score", "setting": "[2]; [8]", "result": 1},
      {"measurement": "Ophthalmic Observation (Slit-Lamp)", "setting": "[2]; [8]", "result": "AN"},
      {"measurement": "Conjunctival congestion Score", "setting": "[2]; Group D, 1 mg/g, treated right eye, individual animal, Day 22", "result": 1},
      {"measurement": "Ophthalmic Observation (Slit-Lamp)", "setting": "[2]; Group D, 1 mg/g, treated right eye, individual animals", "result": "AN"},
      {"measurement": "Ophthalmic observation associated with unilateral topical instillation", "setting": "[2]; four times daily up to 31 days, BOL-303242-X 0.05, 0.25, or 0.5 mg/dose, dexamethasone 0.05 mg/dose", "result": "sporadic mild conjunctival congestion"},
      {"measurement": "Inhibition of COX-2 production by IL-1β-induced HConF", "setting": "[3]", "result": "inhibition of COX-2 production; also recorded: successfully inhibits"},
      {"measurement": "Potency relative to dexamethasone, inhibition of IL-1β-stimulated IL-6, IL-7, TGF-α, TNF-α, VGEF, and MCP-1", "setting": "[4]", "result": "comparable potency"},
      {"measurement": "Potency relative to dexamethasone, inhibition of IL-1β-stimulated production of G-CSF", "setting": "[4]", "result": "more potent than dexamethasone"},
      {"measurement": "Potency relative to dexamethasone, inhibition of IL-1β-stimulated production of GM-CSF, IL-8, and RANTES", "setting": "[4]", "result": "somewhat less potent than dexamethasone"},
      {"measurement": "Inhibition of IL-1β-stimulated production of IL-6, IL-7, MCP-1, TGF-α, TNF-α and VEGF", "setting": "[4]; 10 ng/ml IL-1β, 18 h, comparable potency of both compounds", "result": "significantly inhibited"},
      {"measurement": "Effect on IL-1β-stimulated G-CSF production", "setting": "[4]; 18 h", "result": "significantly inhibited"},
      {"measurement": "Inhibition of IL-1β-stimulated production of GM-CSF, IL-8, and RANTES", "setting": "[4]; 18 h, less potency compared to dexamethasone", "result": "significantly inhibited"},
      {"measurement": "Activity in the rabbit paracentesis model", "setting": "[5]; 0.1%, 0.5% and 1% topical formulations, preliminary conclusion", "result": "active in this model"},
      {"measurement": "Anti-inflammatory effectiveness compared with steroid and NSAID positive controls", "setting": "[5]; rabbit paracentesis model", "result": "as effective an anti-inflammatory drug as some of the commonly accepted prior-art steroids or NSAID"},
      {"measurement": "mean IOP values among dose groups", "setting": "[6]; 2% QID and 3% QD groups, Visit 4 (postoperative Day 3) to Visit 7 (postoperative Day 18)", "result": "lowest mean TOP values"},
      {"measurement": "proportion of subjects with mean IOP changes from baseline of ≧5 mmHg or ≧10 mmHg, compared to vehicle", "setting": "[6]; any dose groups at any study visits", "result": "no statistically significant differences"}
    ]}
  ]
}
